Laboratory results taken from patent publication US12252524B2, “GIP/GLP1 co-agonist compounds” (Eli Lilly and Company, priority 2018, dated 2025).
Numbered stars: 1 amine (or outer) side, 2 acyl side, 3 side chain; on linkers, the order of the positions; unused ones are H or OH. Square brackets hold non-standard residues; d marks the D form. Side chains are listed from the residue outwards. Peptide text beside a SMILES is read from it. * marks the point of attachment. C20 diacid = O=C(O)CCCCCCCCCCCCCCCCCCC(=O)*; γGlu = O=C(O)[C@H](CCC(=O)[*:2])N[*:1]; αMeY = C[C@](N)(Cc1ccc(O)cc1)C(=O)O; αMeL = CC(C)C[C@](C)(N)C(=O)O; Orn = NCCC[C@H](N)C(=O)O; AEEA = NCCOCCOCC(=O)O; Aib = CC(C)(N)C(=O)O

Assays:
human Gcg receptor = molecular target: T1, human Gcg receptor (Homo sapiens, UniProt P47871); experiment: [125I]-Glucagon binding (SPA), human Gcg receptor; details: read-out: hGLcgR Ki, nM (SEM, n)
T1 construct: expressed in transfected cells; crude membranes
T1 sequence (P47871 26-477): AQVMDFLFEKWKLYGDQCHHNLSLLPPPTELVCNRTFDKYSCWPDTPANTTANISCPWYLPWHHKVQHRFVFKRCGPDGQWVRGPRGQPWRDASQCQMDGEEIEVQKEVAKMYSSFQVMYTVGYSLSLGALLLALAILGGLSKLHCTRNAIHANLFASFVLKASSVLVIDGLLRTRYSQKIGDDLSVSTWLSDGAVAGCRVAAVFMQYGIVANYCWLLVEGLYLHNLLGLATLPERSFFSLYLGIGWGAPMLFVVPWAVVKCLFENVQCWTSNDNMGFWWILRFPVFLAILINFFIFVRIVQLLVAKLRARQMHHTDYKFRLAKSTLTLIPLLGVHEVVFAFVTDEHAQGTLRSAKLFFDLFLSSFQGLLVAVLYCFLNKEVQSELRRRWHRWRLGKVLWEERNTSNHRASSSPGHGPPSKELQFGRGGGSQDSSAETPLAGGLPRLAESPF
Method in brief: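 Crude membranes from cells expressing the receptor, prepared by hypotonic lysis in 50 mM Tris HCl pH 7.5 with protease inhibitors, homogenization and differential centrifugation, were used in a WGA-bead SPA. Binding buffer: 25 mM HEPES pH 7.4, 2.5 mM CaCl2, 1 mM MgCl2, bacitracin, Tween-20.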

human GLP-1R [1] = molecular target: T2, human GLP-1R (Homo sapiens, UniProt P43220); experiment: GLP-1R HEK293 cell membrane [35S]GTPγS binding assay; type: biochemical; set-up: expressed in transfected cells; host or cells: HEK293 cells expressing human GLP-1R; membranes; details: HEK293 cell membranes expressing human GLP-1R, [35S]GTPγS binding; read-out: hGLP1R GTPgS Rel EC50 nM (SEM, n)
T2 sequence (P43220 24-463): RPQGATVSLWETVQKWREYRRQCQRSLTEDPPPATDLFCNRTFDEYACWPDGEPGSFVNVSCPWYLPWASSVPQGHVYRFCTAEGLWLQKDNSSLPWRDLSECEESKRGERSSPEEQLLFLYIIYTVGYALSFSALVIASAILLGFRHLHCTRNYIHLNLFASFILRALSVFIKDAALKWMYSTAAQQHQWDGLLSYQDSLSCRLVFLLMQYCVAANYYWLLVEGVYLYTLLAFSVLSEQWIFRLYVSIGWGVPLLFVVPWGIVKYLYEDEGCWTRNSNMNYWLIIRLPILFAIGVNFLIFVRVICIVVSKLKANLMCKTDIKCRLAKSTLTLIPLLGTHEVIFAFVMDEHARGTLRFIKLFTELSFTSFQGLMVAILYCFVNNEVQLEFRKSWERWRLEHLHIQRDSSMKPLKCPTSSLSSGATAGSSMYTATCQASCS
Method in brief: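 Agonist-driven Gαs activation read as [35S]GTPγS ([…]) binding to receptor-expressing HEK293 membranes, 30 min at room temperature, pH 7.4. Detection by anti-Gαs immunocapture on scintillation beads; EC50 derived from four-parameter logistic concentration-response fit.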

human GIP receptor = molecular target: T3, human GIP receptor (Homo sapiens, UniProt P48546); experiment: [125I]-GIP binding (SPA), human GIP receptor; details: read-out: hGIPR Ki, nM (SEM, n)
T3 construct: expressed in transfected cells; crude membranes
T3 sequence (P48546 22-466): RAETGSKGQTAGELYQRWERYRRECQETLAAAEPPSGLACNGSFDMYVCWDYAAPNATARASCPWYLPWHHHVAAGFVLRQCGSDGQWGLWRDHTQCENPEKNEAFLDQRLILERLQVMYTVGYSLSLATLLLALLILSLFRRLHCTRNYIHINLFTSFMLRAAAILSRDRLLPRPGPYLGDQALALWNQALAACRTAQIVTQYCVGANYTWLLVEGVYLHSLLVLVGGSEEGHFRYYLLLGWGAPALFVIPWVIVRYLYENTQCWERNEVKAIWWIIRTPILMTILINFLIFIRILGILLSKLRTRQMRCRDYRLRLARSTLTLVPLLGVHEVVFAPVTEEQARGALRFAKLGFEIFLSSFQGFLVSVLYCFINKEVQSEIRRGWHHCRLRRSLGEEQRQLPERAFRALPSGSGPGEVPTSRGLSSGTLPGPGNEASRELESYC

[2] = molecular target: T4, gastric inhibitory peptide receptor (GIPR) (Homo sapiens, UniProt P48546); experiment: cAMP pharmacological functional assay in presence of casein, hGIPR; type: cell-based; details: HEK293 cells expressing hGIPR, 0.1% Casein, geometric mean; read-out: hGIPR cAMP Rel EC50 nM (SEM, n)
T4 sequence (P48546 22-466): T3 sequence (P48546 22-466)

human GLP-1R [3] = molecular target: T2, human GLP-1R; experiment: GLP-1R CHO cell β-arrestin recruitment assay; type: cell-based; set-up: host or cells: CHO-K1 PathHunter cells, assay-ready frozen; details: for EC50: CHO-K1 cells; for hGLP1R B-Arrestin2 % Top: normalized to GLP-1 maximum control
Method in brief: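 Peptide-induced β-arrestin-2 recruitment measured by enzyme-fragment complementation luminescence after 90 min at 37 °C plus 60 min detection at RT.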

[4] = molecular target: human GLP-1 receptor (GLP-1R) (Homo sapiens, UniProt P43220); experiment: cAMP pharmacological functional assay in presence of casein, hGLP-1R; type: cell-based; details: HEK293 cells expressing hGLP-1R, 0.1% Casein, geometric mean; read-out: hGLP1R cAMP Rel EC50 nM (SEM, n)
Sequence of human GLP-1 receptor (GLP-1R) (P43220 24-463): as the sequence (P43220 24-463) above

[5] = 0.1% w/v hydrolyzed Casein, read-out: hGLP1R B-Arrestin2 Rel EC50
[6] = PathHunter β-arrestin-2 recruitment, 0.1% casein, read-out: hGLP1R B-Arrestin2 Rel EC50 uM (SEM, n)

SMILES | Ki (human Gcg receptor) [nM] | EC50 (human GLP-1R [1]) [nM] | Ki (human GIP receptor) [nM] | EC50 [2] [nM] | EC50 (human GLP-1R [3]; [5]) [µM] | EC50 (human GLP-1R [3]; [6]) [µM] | EC50 [4] [nM] | hGLP1R B-Arrestin2 % Top (human GLP-1R [3]) [%]
CC[C@H](C)[C@H](NC(=O)[C@H](CC(C)C)NC(=O)[C@H](Cc1ccc(O)cc1)NC(=O)[C@H](CCC(=O)O)NC(=O)[C@@H](NC(=O)[C@H](Cc1ccccc1)NC(=O)[C@H](C)NC(=O)C(C)(C)NC(=O)[C@H](CCC(N)=O)NC(=O)[C@H](C)NC(=O)[C@H](CCCCNC(=O)COCCOCCNC(=O)COCCOCCNC(=O)CC[C@H](NC(=O)CCCCCCCCCCCCCCCCCCC(=O)O)C(=O)O)NC(=O)[C@H](CCC(=O)O)NC(=O)[C@H](CC(=O)O)NC(=O)[C@H](CC(C)C)NC(=O)[C@H](CC(C)C)NC(=O)[C@@H](NC(=O)[C@H](CO)NC(=O)[C@H](Cc1ccc(O)cc1)NC(=O)[C@H](CC(=O)O)NC(=O)[C@H](CO)NC(=O)[C@@H](NC(=O)[C@H](Cc1ccccc1)NC(=O)[C@@H](NC(=O)CNC(=O)[C@H](CCC(=O)O)NC(=O)C(C)(C)NC(=O)[C@@H](N)Cc1ccc(O)cc1)[C@@H](C)O)[C@@H](C)O)[C@@H](C)CC)[C@@H](C)CC)C(=O)N[C@@H](C)C(=O)NCC(=O)NCC(=O)N1CCC[C@H]1C(=O)N[C@@H](CO)C(=O)N[C@@H](CO)C(=O)NCC(=O)N[C@@H](C)C(=O)N1CCC[C@H]1C(=O)N1CCC[C@H]1C(=O)N1CCC[C@H]1C(=O)N[C@@H](CO)C(N)=O [Example 330] (H-Y[Aib]EGTFTSDYSILLDEK([AEEA-AEEA-γGlu-C20 diacid])AQ[Aib]AFIEYLIAGGPSSGAPPPS-NH2) | > 1050 | 1.05 | 0.114 | 0.0919 | > 10.9 | > 10.9 | 0.199 | –
CC[C@H](C)[C@H](NC(=O)[C@H](CC(C)C)NC(=O)[C@H](Cc1ccc(O)cc1)NC(=O)[C@H](CCC(=O)O)NC(=O)[C@@H](NC(=O)[C@H](Cc1ccccc1)NC(=O)[C@H](CCC(=O)O)NC(=O)C(C)(C)NC(=O)[C@H](CCC(N)=O)NC(=O)[C@H](C)NC(=O)[C@H](CCCCNC(=O)COCCOCCNC(=O)CC[C@H](NC(=O)CCCCCCCCCCCCCCCCCCC(=O)O)C(=O)O)NC(=O)[C@H](CCCCN)NC(=O)[C@H](CC(=O)O)NC(=O)[C@H](CC(C)C)NC(=O)[C@](C)(CC(C)C)NC(=O)[C@@H](NC(=O)[C@H](CO)NC(=O)[C@H](Cc1ccc(O)cc1)NC(=O)[C@H](CC(=O)O)NC(=O)[C@H](CO)NC(=O)[C@@H](NC(=O)[C@H](Cc1ccccc1)NC(=O)[C@@H](NC(=O)CNC(=O)[C@H](CCC(=O)O)NC(=O)C(C)(C)NC(=O)[C@H](N)Cc1ccc(O)cc1)[C@@H](C)O)[C@@H](C)O)[C@@H](C)CC)[C@@H](C)CC)C(=O)N[C@@H](C)C(=O)NCC(=O)NCC(=O)N1CCC[C@H]1C(=O)N[C@@H](CO)C(=O)N[C@@H](CO)C(=O)NCC(=O)N[C@@H](C)C(=O)N1CCC[C@H]1C(=O)N1CCC[C@H]1C(=O)N1CCC[C@H]1C(=O)N[C@@H](CO)C(N)=O [Example 378] (H-[dY][Aib]EGTFTSDYSI[αMeL]LDKK([AEEA-γGlu-C20 diacid])AQ[Aib]EFIEYLIAGGPSSGAPPPS-NH2) | – | 0.359 | – | 0.067 | > 10.2 | > 10.2 | 0.191 | –
CC[C@H](C)[C@H](NC(=O)[C@H](CC(C)C)NC(=O)[C@](C)(Cc1ccc(O)cc1)NC(=O)[C@H](CCC(=O)O)NC(=O)[C@@H](NC(=O)[C@H](Cc1ccccc1)NC(=O)[C@H](CCC(=O)O)NC(=O)C(C)(C)NC(=O)[C@H](CCC(N)=O)NC(=O)[C@H](C)NC(=O)[C@H](CCCCNC(=O)COCCOCCNC(=O)COCCOCCNC(=O)CC[C@H](NC(=O)CCCCCCCCCCCCCCCCCCC(=O)O)C(=O)O)NC(=O)[C@H](CCCCN)NC(=O)[C@H](CC(=O)O)NC(=O)[C@H](CC(C)C)NC(=O)[C@](C)(CC(C)C)NC(=O)[C@@H](NC(=O)[C@H](CO)NC(=O)[C@H](Cc1ccc(O)cc1)NC(=O)[C@H](CC(=O)O)NC(=O)[C@H](CO)NC(=O)[C@@H](NC(=O)[C@H](Cc1ccccc1)NC(=O)[C@@H](NC(=O)CNC(=O)[C@H](CCC(=O)O)NC(=O)C(C)(C)NC(=O)[C@H](N)Cc1ccc(O)cc1)[C@@H](C)O)[C@@H](C)O)[C@@H](C)CC)[C@@H](C)CC)C(=O)N[C@@H](CCC(=O)O)C(=O)NCC(=O)NCC(=O)N1CCC[C@H]1C(=O)N[C@@H](CO)C(=O)N[C@@H](CO)C(=O)NCC(=O)N[C@@H](C)C(=O)N1CCC[C@H]1C(=O)N1CCC[C@H]1C(=O)N1CCC[C@H]1C(=O)N[C@@H](CO)C(N)=O [Example 379] (H-[dY][Aib]EGTFTSDYSI[αMeL]LDKK([AEEA-AEEA-γGlu-C20 diacid])AQ[Aib]EFIE[αMeY]LIEGGPSSGAPPPS-NH2) | – | 0.239 | – | 0.079 | – | 0.0181 | 0.238 | 31.9
CC[C@H](C)[C@H](NC(=O)[C@H](CC(C)C)NC(=O)[C@](C)(Cc1ccc(O)cc1)NC(=O)[C@H](CCC(=O)O)NC(=O)[C@@H](NC(=O)[C@H](Cc1ccccc1)NC(=O)[C@H](CCC(=O)O)NC(=O)C(C)(C)NC(=O)[C@H](CCC(N)=O)NC(=O)[C@H](C)NC(=O)[C@H](CCCCNC(=O)COCCOCCNC(=O)COCCOCCNC(=O)CC[C@H](NC(=O)CCCCCCCCCCCCCCCCCCC(=O)O)C(=O)O)NC(=O)[C@H](CCCN)NC(=O)[C@H](CC(=O)O)NC(=O)[C@H](CC(C)C)NC(=O)[C@](C)(CC(C)C)NC(=O)[C@@H](NC(=O)[C@H](CO)NC(=O)[C@H](Cc1ccc(O)cc1)NC(=O)[C@H](CC(=O)O)NC(=O)[C@H](CO)NC(=O)[C@@H](NC(=O)[C@H](Cc1ccccc1)NC(=O)[C@@H](NC(=O)CNC(=O)[C@H](CCC(=O)O)NC(=O)C(C)(C)NC(=O)[C@H](N)Cc1ccc(O)cc1)[C@@H](C)O)[C@@H](C)O)[C@@H](C)CC)[C@@H](C)CC)C(=O)N[C@@H](CCC(=O)O)C(=O)NCC(=O)NCC(=O)N1CCC[C@H]1C(=O)N[C@@H](CO)C(=O)N[C@@H](CO)C(=O)NCC(=O)N[C@@H](C)C(=O)N1CCC[C@H]1C(=O)N1CCC[C@H]1C(=O)N1CCC[C@H]1C(=O)N[C@@H](CO)C(N)=O [Example 380] (H-[dY][Aib]EGTFTSDYSI[αMeL]LD[Orn]K([AEEA-AEEA-γGlu-C20 diacid])AQ[Aib]EFIE[αMeY]LIEGGPSSGAPPPS-NH2) | – | 0.188 | – | 0.142 | – | 0.0137 | 0.236 | 35
